For series [1], the target named is T1, Estrogen receptor (Homo sapiens, UniProt P03372).
T1 sequence (P03372 whole entry): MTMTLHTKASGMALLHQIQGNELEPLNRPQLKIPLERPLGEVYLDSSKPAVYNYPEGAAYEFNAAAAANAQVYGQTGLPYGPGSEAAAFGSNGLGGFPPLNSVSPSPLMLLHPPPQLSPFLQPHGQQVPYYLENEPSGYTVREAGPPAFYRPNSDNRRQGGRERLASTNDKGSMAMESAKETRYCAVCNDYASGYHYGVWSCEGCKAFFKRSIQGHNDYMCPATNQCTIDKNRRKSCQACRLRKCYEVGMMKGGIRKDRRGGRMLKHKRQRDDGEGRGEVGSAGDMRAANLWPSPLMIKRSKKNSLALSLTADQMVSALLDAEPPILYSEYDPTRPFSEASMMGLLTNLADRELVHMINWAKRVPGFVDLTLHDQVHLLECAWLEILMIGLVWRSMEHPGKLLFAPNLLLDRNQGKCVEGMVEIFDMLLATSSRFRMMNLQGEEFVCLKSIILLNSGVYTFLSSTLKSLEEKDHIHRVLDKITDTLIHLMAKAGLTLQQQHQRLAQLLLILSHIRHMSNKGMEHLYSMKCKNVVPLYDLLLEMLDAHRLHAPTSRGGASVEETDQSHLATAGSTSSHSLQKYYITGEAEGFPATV
As to the kind of experiment: Displacement of FAM-LTERHKILHRLLQEGSPSD from ERalpha (unknown origin) (302 to 552 residues) expressed in Escherichia coli rosetta (DE3) after 1 hr by fluorescence polarization assay.

Series [2] deals with Estrogen receptor beta (Homo sapiens, UniProt Q92731). As to the kind of experiment: Displacement of FAM-LTERHKILHRLLQEGSPSD from ERbeta (unknown origin) (260 to 502 residues) expressed in Escherichia coli rosetta (DE3) after 1 hr by fluorescence polarization assay. A general note: Polarisation of emitted light reports the rotation of a fluorescent probe.
Estrogen receptor beta (Homo sapiens, UniProt Q92731), sequence (Q92731 whole entry, the tested form may be a part): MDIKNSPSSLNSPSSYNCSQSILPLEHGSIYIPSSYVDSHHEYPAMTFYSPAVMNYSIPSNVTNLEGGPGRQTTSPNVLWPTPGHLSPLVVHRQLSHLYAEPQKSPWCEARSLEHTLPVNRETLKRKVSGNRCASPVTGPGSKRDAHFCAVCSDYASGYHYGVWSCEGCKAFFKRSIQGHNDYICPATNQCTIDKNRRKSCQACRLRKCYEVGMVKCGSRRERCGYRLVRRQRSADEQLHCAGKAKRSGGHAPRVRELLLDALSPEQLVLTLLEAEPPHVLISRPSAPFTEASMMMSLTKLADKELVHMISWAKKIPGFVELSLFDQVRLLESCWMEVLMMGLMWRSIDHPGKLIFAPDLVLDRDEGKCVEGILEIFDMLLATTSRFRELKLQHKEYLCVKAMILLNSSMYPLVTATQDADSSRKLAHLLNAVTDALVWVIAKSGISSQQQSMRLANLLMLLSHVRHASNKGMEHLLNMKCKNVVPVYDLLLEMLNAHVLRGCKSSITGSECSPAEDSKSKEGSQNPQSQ
Series [3] deals with T1, Estrogen receptor. As to the kind of experiment: Binding affinity to recombinant human ERalpha LBD (301 to 553 residues) expressed in Escherichia coli BL21(DE3) using FAM-labelled compound after 1 hr by fluorescence polarization method.
Series [4] deals with T2, Estrogen receptor beta (Homo sapiens, UniProt Q92731, C334S/C369S/C481S). As to the kind of experiment: Binding affinity to recombinant human ERbeta LBD (259 to 498 residues) C334S/C369S/C481S triple mutant expressed in Escherichia coli BL21(DE3) using FAM-labelled compound after 1 hr by fluorescence polarization method.
T2 sequence (Q92731 whole entry C334S/C369S/C481S, the tested form may be a part): as the sequence (Q92731 whole entry, the tested form may be a part) above, with C334S, C369S, C481S counted along it
A short description of series [5]: Half life in rabbit serum at 100 uM by RP-HPLC method. The format is ADME, cell-free, Oryctolagus cuniculus.
The target in series [6] is T1, Estrogen receptor. As to the kind of experiment: Displacement of THC-ketone from human ERalpha LBD (304 to 554 residues) expressed in Escherichia coli BL21(DE3) after 1 hr by fluorescence assay.
In series [7] the target is T3, Estrogen receptor (Homo sapiens) (UniProt P03372).
T3 sequence (whole entry): T1 sequence (P03372 whole entry)
Description: (§1) Binding affinity to recombinant human ERalpha LBD (301 to 553 residues) expressed in Escherichia coli BL21(DE3) by surface plasmon resonance method. On the technique in general: In SPR one partner is held on a chip, and binding of the other changes the refractive index at the surface.

Series [8] deals with T1, Estrogen receptor. Described as §1.
For series [9], the system named is Estrogen receptor beta (Homo sapiens), Q92731 [C334S,C369S,C481S]. Description: (§2) Binding affinity to recombinant human ERbeta LBD (259 to 498 residues) C334S/C369S/C481S triple mutant expressed in Escherichia coli BL21(DE3) by surface plasmon resonance method.
Estrogen receptor beta (Homo sapiens), Q92731 [C334S,C369S,C481S], sequence (Q92731 whole entry C334S/C369S/C481S, the tested form may be a part): as the sequence (Q92731 whole entry, the tested form may be a part) above, with C334S, C369S, C481S counted along it
For series [10], the target named is T2, Estrogen receptor beta. The description is as §2.
Series [11] deals with T1, Estrogen receptor. Description: Binding affinity to recombinant N-terminal His6-tagged ERalpha LBD (unknown origin) (299 to 554 residues) by surface plasmon resonance method.

Starred links: 1 amine or outer side, 2 acyl side, 3 side chain; linkers in the order of their positions; H or OH if unused. Positions of bridges follow the written chain, without caps; N, C: chain ends. Non-standard residues stand in square brackets, D forms with d. Residues, ends and D or L forms follow the SMILES beside them. X1 = O=C([C@H](CCC/C=C/[*:3])N[*:1])[*:2]

Take `CSCC[C@H](NC(=O)[C@H](CC(C)C)NC(=O)[C@H](CC(C)C)NC(=O)[C@@H]1CCCN1C(=O)[C@@H](N)Cc1cnc[nH]1)C(=O)N[C@@H](CCCNC(=N)N)C(=O)N[C@@H](CC(C)C)C(=O)N[C@@H](CC(C)C)C(=O)N[C@@H](CC(C)C)C(=O)N[C@@H](CO)C(=O)N1CCC[C@H]1C(N)=O` (H-HPLLMRLLLSP-NH2): the Ki (in general, the dissociation constant of the complex between target and ligand, obtained from inhibition or displacement) was 185 nM at Estrogen receptor [1] and 25 nM on Estrogen receptor beta [2].
On to `CSCC[C@H](NC(=O)[C@H](CC(C)C)NC(=O)[C@H](CC(C)C)NC(=O)[C@@H]1CCCN1C(=O)[C@@H](N)Cc1cnc[nH]1)C(=O)N[C@@H](CCCNC(=N)N)C(=O)N[C@@H](CC(C)C)C(=O)N[C@@H](CC(C)C)C(=O)N[C@@H](Cc1cnc[nH]1)C(=O)N[C@@H](Cc1cnc[nH]1)C(=O)N1CCC[C@H]1C(=O)N[C@@H](CO)C(N)=O` (H-HPLLMRLLHHPS-NH2), for which the Ki on Estrogen receptor [1] was found to be 1540 nM; at Estrogen receptor beta [2], 3640 nM.
With `CC[C@H](C)[C@@H]1NC(=O)[C@@H](NC(=O)[C@H](CCCNC(=N)N)NC(=O)[C@H](CCCCN)NC(=O)[C@@H](N)Cc2c[nH]c3ccccc23)CS/C=C/CCC[C@@H](C(=O)N[C@@H](CC(C)C)C(=O)N[C@@H](CC(C)C)C(=O)N[C@@H](CCC(N)=O)C(=O)N[C@@H](CCC(=O)O)C(N)=O)NC(=O)[C@H](CCCNC(=N)N)NC(=O)[C@H](CC(C)C)NC1=O` (H-WKRCILR[X1]LLQE-NH2; thioether 4-8), the Kd – broadly, the free concentration of one partner at which half of the binding sites on the other are occupied at equilibrium, for simple one-to-one binding – on Estrogen receptor [3] stood at 101 nM; on Estrogen receptor beta [4], 178 nM. For the same compound, the half-life (in general, the time in which the quantity being followed falls by half) at 100 µM in series [5] was 18.2 h.
The compound `CC[C@H](C)[C@H](NC(=O)[C@H](CCCCN)NC(=O)[C@H](Cc1cnc[nH]1)NC(=O)[C@H](CCCNC(=N)N)NC(=O)[C@H](CCC(=O)O)NC(=O)[C@@H](NC(=O)[C@H](CC(C)C)NC(=O)[C@@H](N)CS)[C@@H](C)O)C(=O)N[C@@H](CC(C)C)C(=O)N[C@@H](Cc1cnc[nH]1)C(=O)N[C@@H](CCCNC(=N)N)C(=O)N[C@@H](CC(C)C)C(=O)N[C@@H](CC(C)C)C(=O)N[C@@H](CCC(N)=O)C(=O)N[C@@H](CCC(=O)O)C(N)=O` (H-CLTERHKILHRLLQE-NH2) displayed a Kd on Estrogen receptor [6] of 900 nM.
Turning to `CC[C@H](C)[C@H](NC(=O)[C@H](CCCCN)NC(=O)[C@H](Cc1cnc[nH]1)NC(C)=O)C(=O)N[C@@H](CC(C)C)C(=O)N[C@@H](Cc1cnc[nH]1)C(=O)N[C@@H](CCCNC(=N)N)C(=O)N[C@@H](CC(C)C)C(=O)N[C@@H](CC(C)C)C(=O)N[C@@H](CCC(N)=O)C(=O)N[C@@H](CC(=O)O)C(=O)N[C@@H](CO)C(N)=O` (Ac-HKILHRLLQDS-NH2), the Kdiss in [7] was 0.347 s⁻¹; in [9] it was 0.376 s⁻¹. In addition, the Kd at Estrogen receptor [8] came out at 2500 nM; on Estrogen receptor beta [10], 5000 nM; on Estrogen receptor [11], 2600 nM.

(Values after ChEMBL document CHEMBL4229451, “Recent advances in peptidomimetics antagonists targeting estrogen receptor α-coactivator interaction in cancer therapy” (Bioorg Med Chem Lett, 2018).)
